Laboratory results: patent US5306824A, “Biotinylated isocoumarins” (Georgia Tech Research Corporation, priority 1992, dated 1994)

Experiments:
PPE [1] = biological target: T1, PPE (Sus scrofa, UniProt P00772); experiment: Effect of streptavidin and avidin on reactivation of inhibited PPE; format: biochemical, porcine; conditions: monitored for two days
Experimental: ^a Percentage of regained enzymatic activity was measured in 0.1 M
Hepes, 0.5 M NaCl, pH 7.5 buffer, 8% Me2 SO and at 25° C.
Excess inhibitor was removed from enzymeinhibitor mixture by
centrifugation twice with Amicon microconcentrator10. Then 3-4 units of
avidin or strepavidin was added and enzymatic activity was monitored for […]

chymotrypsin = chymotrypsin (Bos taurus, UniProt P00766); experiment: Inactivation of chymotrypsin by biotin-isocoumarins (incubation method); format: biochemical, bovine; conditions: pH 7.5, inhibitor 20-400 μM; 0.1 M Hepes, 0.5 M NaCl, pH 7.5, 5-10% Me2SO, 25° C.; two values given for some compounds; read-out: kobs/[I] Chymotrypsin
Experimental: (§1) Inactivation rates of serine proteases by substituted isocoumarins were measured by the incubation method. An aliquot of inhibitor (25 or 50 μl) in Me2 SO was added to a buffered enzyme solution (0.01-2.3 μM) to initiate the inactivation. Aliquots (50-100 μl) were withdrawn at various intervals and the residual enzymatic activity was measured. Me2 SO concentration in the reaction mixture was 8-12% (v/v). 0.1M Hepes, 0.5M NaCl, pH 7.5 buffer was utilized for the assays of chymotrypsin, cathepsin G (cat G), porcine pancreatic elastase (PPE), human leukocyte elastase (HLE) and rat granule serine proteases. 0.1M Hepes, 0.01M CaCl2, pH 7.5 buffer was utilized for the assays of trypsin and human recombinant (HR) granzyme A. The inhibitor concentrations are shown in the Tables I and II. Peptide nitroanilides with appropriate sequence were used as substrates for various serine proteases. All peptide 4-nitroanilide hydrolysis was measured at 410 nm (ε410 =8800M^-1 cm^-1; Erlanger et al., Arch. Biochem. Biophys. 95, pp 271-278 (1961), incorporated herein by reference). Peptide thioester hydrolysis rates were measured with assay mixtures containing 4,4'-dithiodipyridine (ε324 =19800M^-1 cm^-1; Grasetti & Murray, Arch. Biochem. Biophys. 119, pp. 41-49 (1967), incorporated herein by reference). First order inactivation rate constant (kobs) were obtained from plots of ln (vt /vo) vs time, and the correlation coefficients were greater than 0.98.
(§2) ^a Inhibition was measured in 0.1 M Hepes, 0.5 M NaCl (or 0.01 M
(§3) CaCl2), pH 7.5 buffer, 5-10% Me2 SO and at 25° C.
(§4) SucVal-Pro-NA (0.48 mM) was used as the substrate for chymotrypsin and ca
^b Inhibitor concentrations were 20-400 μM.

PPE [2] = biological target: T1, PPE; experiment: Reactivation of inhibited PPE in buffer and with NH2OH; format: biochemical, porcine; conditions: for % of Enzyme Activity Reactivated, PPE +NH2OH: 0.4 M NH2OH, immediately after addition; for % of Enzyme Activity Reactivated, PPE in buffer: after removal of excess inhibitor, 25° C. for two days, 2880 min
Experimental: (§5) ^a Inhibition was performed at 0.1 M Hepes, 0.5 M NaCl, pH 7.5 buffer
(§6) 10% Me2 SO and 25° C. Reactivation was carried out in the
presence of 0.4 M of NH2 OH, and occurred immediately after the
(§7) ^b Enzyme activity was measured after removal of excess inhibitor by
(§8) centrifugation at 0° C. with centricon10 microconcentrator and
(§9) staying at 25° C. for two days.

trypsin [3] = biological target: T2, trypsin (Bos taurus, UniProt P00760); experiment: Reactivation of inhibited trypsin in buffer; format: biochemical; conditions: after removal of excess inhibitor, 25° C. for two days
T2 sequence (P00760 24-246): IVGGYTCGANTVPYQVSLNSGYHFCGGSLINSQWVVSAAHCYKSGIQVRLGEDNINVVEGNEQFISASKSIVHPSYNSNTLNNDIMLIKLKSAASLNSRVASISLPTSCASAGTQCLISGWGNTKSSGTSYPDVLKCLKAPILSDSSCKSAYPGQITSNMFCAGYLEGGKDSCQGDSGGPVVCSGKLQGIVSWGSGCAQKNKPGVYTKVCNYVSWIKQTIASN
Experimental: as §5, §6, §7, §8, §9

[4] = biological target: porcine pancreatic elastase (PPE) (Sus scrofa, UniProt P00772); experiment: Inactivation of porcine pancreatic elastase by biotin-isocoumarins (incubation method); format: biochemical; conditions: inhibitor 38-78 μM; pH 7.5, 25° C.; NI = no inhibition after 10 min of incubation; read-out: kobs/[I] PPE
Chain of porcine pancreatic elastase (PPE) (P00772 27-266): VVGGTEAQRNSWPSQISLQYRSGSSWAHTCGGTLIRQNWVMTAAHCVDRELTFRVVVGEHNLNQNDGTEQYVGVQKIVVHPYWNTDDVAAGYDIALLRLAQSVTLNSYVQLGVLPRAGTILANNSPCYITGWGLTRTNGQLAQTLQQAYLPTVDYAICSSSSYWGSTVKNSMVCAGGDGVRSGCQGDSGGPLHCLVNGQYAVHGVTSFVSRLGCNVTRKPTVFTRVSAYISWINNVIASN
Experimental: as §1, §2, §3
(§10) G. MeOSuc-Ala-Ala-Pro-Val-NA (0.24-0.47 mM) and SucAla-Ala-Ala-NA
(§11) (0.29-0.48 mM) were used as the substrate for HLE and PPE respectively.
^e Inhibitor concentrations were 38-78 μM.
(§12) ^h No inhibition after 10 min of incubation of inhibitor and enzyme.

cathepsin G (cat G) = biological target: T3, cathepsin G (cat G) (Homo sapiens, UniProt P08311); experiment: Inactivation of cathepsin G by biotin-isocoumarins (incubation method); format: biochemical; conditions: inhibitor 75-400 μM; pH 7.5, 25° C.; NI = no inhibition after 10 min of incubation; read-out: kobs/[I] Cat. G
T3 sequence (P08311 21-255): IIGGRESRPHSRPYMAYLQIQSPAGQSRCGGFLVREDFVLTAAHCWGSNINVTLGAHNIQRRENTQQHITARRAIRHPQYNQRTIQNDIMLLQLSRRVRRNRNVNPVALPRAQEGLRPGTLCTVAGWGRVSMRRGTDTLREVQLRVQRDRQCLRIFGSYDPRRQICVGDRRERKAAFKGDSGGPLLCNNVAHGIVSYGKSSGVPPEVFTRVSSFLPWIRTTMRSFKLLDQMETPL
Experimental: as §1, §2, §3, §4, §10
^c Inhibitor concentrations were 75-400 μM.
as §12
(§13) ^i Percentage of inhibition after 10 min of incubation of inhibitor

trypsin [5] = biological target: T2, trypsin; experiment: Inactivation of trypsin by biotin-isocoumarins (incubation method); format: biochemical; conditions: inhibitor 41-42 μM; 0.1 M Hepes, 0.01 M CaCl2, pH 7.5, 25° C.; read-out: kobs/[I] Trypsin
Experimental: as §1, §2, §3
(§14) ZGlu-Phe-Arg-NA (0.032 mM) was a substrate for trypsin. ZArg-SBzl (0.120
^f Inhibitor concentrations were 41-42 μM.

[6] = biological target: T4, human leukocyte elastase (HLE) (Homo sapiens, UniProt P08246); experiment: Inactivation of human leukocyte elastase by biotin-isocoumarins (incubation method); format: biochemical; conditions: inhibitor 1.6-210 μM; pH 7.5, 25° C.; read-out: kobs/[I] HLE
T4 sequence (P08246 30-267): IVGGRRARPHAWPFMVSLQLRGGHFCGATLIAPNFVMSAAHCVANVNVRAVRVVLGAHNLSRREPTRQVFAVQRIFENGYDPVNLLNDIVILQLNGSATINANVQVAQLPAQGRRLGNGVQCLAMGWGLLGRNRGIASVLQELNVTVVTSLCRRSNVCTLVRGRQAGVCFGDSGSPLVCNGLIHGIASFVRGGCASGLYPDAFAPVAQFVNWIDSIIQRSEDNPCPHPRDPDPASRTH
Experimental: as §1, §2, §3, §10, §11
^d Inhibitor concentrations were 1.6-210 μM.

[7] = biological target: T5, human recombinant (HR) granzyme A (Homo sapiens, UniProt P12544); experiment: Inactivation of human recombinant granzyme A by biotin-isocoumarins (incubation method); format: biochemical; conditions: inhibitor 160-210 μM, pH 7.5, 25° C.
T5 sequence (P12544 29-262): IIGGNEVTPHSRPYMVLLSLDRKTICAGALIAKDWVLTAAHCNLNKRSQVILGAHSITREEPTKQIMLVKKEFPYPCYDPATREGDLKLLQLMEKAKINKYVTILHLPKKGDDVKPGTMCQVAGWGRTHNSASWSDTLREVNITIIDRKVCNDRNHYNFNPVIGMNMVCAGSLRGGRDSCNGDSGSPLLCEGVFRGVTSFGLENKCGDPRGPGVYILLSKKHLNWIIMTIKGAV
Experimental: as §1, §2, §3, §14
mM) was a substrate for human recombinant (HR) granzyme A.
^g Inhibitor concentrations were 160-210 μM.
as §12, §13

T1 sequence (P00772 27-266): as the sequence (P00772 27-266) above

Compound | % of Regained Enzyme Activity, PPE, +Avidin (PPE [1]; 3-4 units avidin, 2880 min) | % of Regained Enzyme Activity, PPE, +Streptavidin (PPE [1]; 3-4 units streptavidin, 2880 min) | % of Regained Enzyme Activity, PPE, Buffer (PPE [1]; pH 7.5, 8% Me2SO, 25° C.) | kinact/KI (chymotrypsin) | % of Enzyme Activity Reactivated, PPE +NH2OH (PPE [2]) | % of Enzyme Activity Reactivated, PPE in buffer (PPE [2]) | % of Enzyme Activity Reactivated, Trypsin in buffer (trypsin [3]) | kinact/KI [4] | kinact/KI (cathepsin G (cat G)) | kinact/KI (trypsin [5]) | kinact/KI [6] | Percentage of inhibition of HR Granzyme A after 10 min of incubation of inhibitor and enzyme [7]
CCCOc1oc(=O)c2cc(NC(=O)CCCCCNC(=O)CCCC[C@@H]3SC[C@@H]4NC(=O)N[C@@H]43)ccc2c1Cl [Compound 4, 7-(6-biotinylaminocaproyl)amino-4-chloro-3-propoxyisocoumarin] | 32% | 43% | 37% | 260 M⁻¹ s⁻¹ | 90% | 37% | 33% | 350 M⁻¹ s⁻¹ | 3.3 M⁻¹ s⁻¹ | 10.6 M⁻¹ s⁻¹ | 76700 M⁻¹ s⁻¹ | –
CCOc1oc(=O)c2cc(NC(=O)CCCCCNC(=O)CCCC[C@@H]3SC[C@@H]4NC(=O)N[C@@H]43)ccc2c1Cl [Compound 5, 7-(6-biotinylaminocaproyl)amino-4-chloro-3-ethoxyisocoumarin] | – | – | – | 260 M⁻¹ s⁻¹ | 93% | 66% | 92% | 520 M⁻¹ s⁻¹ | 59 M⁻¹ s⁻¹ | 16.6 M⁻¹ s⁻¹ | 96000 M⁻¹ s⁻¹ | 26%
